Experiment [1] concerns Hepatitis B virus. Put plainly: Antiviral activity against HBV infected in human HepAD38 cells assessed as inhibition of viral replication. The experiment is classed as functional, organism-based.
Experiment [2] deals with Hepatitis B virus. Put plainly: Antiviral activity against HBV infected in human HepDES19 cells assessed as inhibition of extracellular HBV DNA by qPCR analysis. The experiment is classed as functional, organism-based. A general note: Quantitative PCR measures a nucleic acid by following its amplification.
Experiment [3] addresses Lysine-specific demethylase 5B (Homo sapiens, UniProt Q9UGL1). In words: Inhibition of KDM5B (unknown origin).
A further experiment has as its target SRSF protein kinase 1 (Homo sapiens, UniProt Q96SB4). In words: Inhibition of SRPK-1 (unknown origin).
Experiment [4] in a line: Inhibition of HBV RNA polymerase. Set-up: species or system Hepatitis B virus.
Experiment [5] has as its system Hepatitis B virus. In words: Antiviral activity against HBV infected in human Primary hepatocyte assessed as reduction in HBV replication. The experiment is classed as functional, organism-based.
The subject of experiment [6] is Hepatitis B virus. Put plainly: Antiviral activity against HBV infected in human HepG2.2.15 cells assessed as reduction in viral DNA levels incubated for 6 days by PCR analysis. The experiment is classed as functional, organism-based. The following applies: HepG2.2.15, 144 h.
Experiment [7] concerns Hepatitis B virus. Put plainly: Antiviral activity against Hepatitis B virus ayw1 infected in human HepG2 2.2.15 cells assessed as reduction in viral DNA replication incubated for 6 days by qPCR analysis. The experiment is classed as functional, organism-based. Particulars: ayw1, HepG2 2.2.15, 144 h.
Experiment [8] has as its target T1, NAD-dependent protein deacetylase sirtuin-2 (Homo sapiens, UniProt Q8IXJ6).
T1 sequence (Q8IXJ6 whole entry): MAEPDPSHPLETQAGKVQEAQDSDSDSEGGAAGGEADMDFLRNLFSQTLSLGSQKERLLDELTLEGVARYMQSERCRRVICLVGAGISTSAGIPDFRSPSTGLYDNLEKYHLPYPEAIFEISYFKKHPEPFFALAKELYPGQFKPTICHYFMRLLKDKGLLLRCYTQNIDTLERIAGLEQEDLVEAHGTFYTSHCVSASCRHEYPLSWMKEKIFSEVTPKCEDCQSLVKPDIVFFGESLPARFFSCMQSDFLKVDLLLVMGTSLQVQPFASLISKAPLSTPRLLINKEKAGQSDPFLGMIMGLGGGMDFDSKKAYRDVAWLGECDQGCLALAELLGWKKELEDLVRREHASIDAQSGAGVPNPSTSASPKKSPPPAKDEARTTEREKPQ
Put plainly: Inhibition of SIRT2 (unknown origin).

Another experiment concerns HepG2 2.2.15. In words: Cytotoxicity against human HepG2.2.15 cells assessed as reduction in cell viability by CellTiter-Blue reagent based analysis. The experiment is classed as functional.
For experiment [9], the system named is Hepatitis B virus. Put plainly: Antiviral activity against Hepatitis B virus assessed as inhibition of HBV DNA replication. The experiment is classed as functional, organism-based.
Experiment [10] concerns the target Triosephosphate isomerase (Homo sapiens, UniProt P60174). In words: Inhibition of TPI1 (unknown origin).
The test system of experiment [11] is Hepatitis B virus. In words: Antiviral activity against HBV infected in human HepG2.117 cells assessed as reduction in intracellular DNA level by RT-qPCR analysis. The experiment is classed as functional, organism-based.
Experiment [12] relates to Hepatitis B virus. Put plainly: Antiviral activity against HBV infected in human HepG2.2.15 cells. The experiment is classed as functional, organism-based.
For experiment [13], the target named is Human immunodeficiency virus type 1 reverse transcriptase (Human immunodeficiency virus 1, UniProt Q72547). In words: Inhibition of HIV-1 reverse transcriptase.

Chain of Triosephosphate isomerase (P60174 whole entry): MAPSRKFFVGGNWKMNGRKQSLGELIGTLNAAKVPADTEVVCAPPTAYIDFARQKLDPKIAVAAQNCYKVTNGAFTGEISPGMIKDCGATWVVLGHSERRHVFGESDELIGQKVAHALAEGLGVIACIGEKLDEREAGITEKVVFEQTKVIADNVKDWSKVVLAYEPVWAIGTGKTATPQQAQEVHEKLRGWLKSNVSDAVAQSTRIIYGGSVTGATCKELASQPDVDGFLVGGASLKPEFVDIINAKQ
Chain of SRSF protein kinase 1 (Q96SB4 whole entry): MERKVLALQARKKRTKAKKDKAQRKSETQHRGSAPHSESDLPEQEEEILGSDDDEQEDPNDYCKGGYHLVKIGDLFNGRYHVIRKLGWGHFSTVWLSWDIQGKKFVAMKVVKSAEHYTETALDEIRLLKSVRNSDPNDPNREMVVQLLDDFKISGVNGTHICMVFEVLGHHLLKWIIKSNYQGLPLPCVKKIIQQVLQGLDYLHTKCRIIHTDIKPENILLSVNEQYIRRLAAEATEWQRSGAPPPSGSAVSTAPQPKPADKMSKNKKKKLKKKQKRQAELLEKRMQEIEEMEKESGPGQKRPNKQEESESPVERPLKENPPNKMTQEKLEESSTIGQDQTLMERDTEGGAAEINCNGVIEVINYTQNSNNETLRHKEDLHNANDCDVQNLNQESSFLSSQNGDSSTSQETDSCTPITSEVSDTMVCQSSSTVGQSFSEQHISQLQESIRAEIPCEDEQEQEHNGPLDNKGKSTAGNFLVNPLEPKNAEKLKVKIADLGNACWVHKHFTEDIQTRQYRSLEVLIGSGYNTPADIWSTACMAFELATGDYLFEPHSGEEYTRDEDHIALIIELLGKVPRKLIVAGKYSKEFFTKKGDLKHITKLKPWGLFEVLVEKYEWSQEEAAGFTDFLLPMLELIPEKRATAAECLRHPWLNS
Chain of Lysine-specific demethylase 5B (Q9UGL1 whole entry): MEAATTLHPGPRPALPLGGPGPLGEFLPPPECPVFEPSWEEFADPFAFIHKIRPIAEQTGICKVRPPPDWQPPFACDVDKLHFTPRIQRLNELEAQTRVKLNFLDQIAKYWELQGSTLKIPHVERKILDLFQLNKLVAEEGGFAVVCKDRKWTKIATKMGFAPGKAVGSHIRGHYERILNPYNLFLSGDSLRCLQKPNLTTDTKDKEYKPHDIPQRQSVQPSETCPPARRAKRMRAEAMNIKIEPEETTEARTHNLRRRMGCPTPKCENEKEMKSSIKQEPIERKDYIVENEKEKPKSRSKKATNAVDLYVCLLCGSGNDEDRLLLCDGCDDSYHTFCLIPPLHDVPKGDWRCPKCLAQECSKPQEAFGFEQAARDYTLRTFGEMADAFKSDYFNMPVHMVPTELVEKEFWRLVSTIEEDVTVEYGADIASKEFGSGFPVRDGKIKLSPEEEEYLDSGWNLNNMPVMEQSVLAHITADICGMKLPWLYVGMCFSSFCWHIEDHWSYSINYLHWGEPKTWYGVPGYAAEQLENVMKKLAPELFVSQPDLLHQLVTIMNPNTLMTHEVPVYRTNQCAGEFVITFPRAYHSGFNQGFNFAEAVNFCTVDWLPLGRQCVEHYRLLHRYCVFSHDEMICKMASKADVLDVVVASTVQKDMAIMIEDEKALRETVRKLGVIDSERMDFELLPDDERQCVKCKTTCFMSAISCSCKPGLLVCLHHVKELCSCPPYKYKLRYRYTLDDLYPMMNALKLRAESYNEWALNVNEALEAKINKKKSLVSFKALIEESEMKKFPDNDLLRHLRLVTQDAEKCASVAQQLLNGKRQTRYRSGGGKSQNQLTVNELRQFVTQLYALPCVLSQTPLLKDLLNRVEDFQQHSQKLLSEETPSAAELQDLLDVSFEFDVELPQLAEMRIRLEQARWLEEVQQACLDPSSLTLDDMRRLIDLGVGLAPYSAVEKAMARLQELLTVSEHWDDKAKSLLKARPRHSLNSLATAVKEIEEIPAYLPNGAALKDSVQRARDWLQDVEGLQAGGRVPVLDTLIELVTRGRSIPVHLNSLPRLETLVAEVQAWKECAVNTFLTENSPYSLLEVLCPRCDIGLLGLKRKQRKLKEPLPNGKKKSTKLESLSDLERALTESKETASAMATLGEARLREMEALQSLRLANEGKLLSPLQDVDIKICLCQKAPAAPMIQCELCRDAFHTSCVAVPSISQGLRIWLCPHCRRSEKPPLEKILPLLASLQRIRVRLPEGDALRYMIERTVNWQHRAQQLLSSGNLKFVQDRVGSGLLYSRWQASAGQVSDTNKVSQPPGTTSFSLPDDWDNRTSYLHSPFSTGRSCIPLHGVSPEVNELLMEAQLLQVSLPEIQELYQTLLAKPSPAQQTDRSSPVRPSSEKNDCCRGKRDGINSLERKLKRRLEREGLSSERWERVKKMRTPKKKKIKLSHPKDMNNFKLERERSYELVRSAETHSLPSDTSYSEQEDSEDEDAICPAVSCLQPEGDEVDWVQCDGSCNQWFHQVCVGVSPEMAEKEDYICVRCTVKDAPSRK

Usually EC50 stands for the concentration that produces a half-maximal response. In the case of `Cc1cc(/N=N/c2ccc(S(=O)(=O)Nc3ccccn3)cc2)c(N)cc1O`, the concentration for a half-maximal effect (EC50) in the experiment on Hepatitis B virus [1] was 15600 nM.
`CCOC(=O)C1=C(CN2CCOCC2)NC(c2nccs2)=NC1c1ccc(F)cc1Br` (stereo not drawn): the EC50 in the experiment on Hepatitis B virus [2] was 100 nM.
With `CCOC(=O)c1ccnc(CNCC(=O)N(CC)CCN(C)C)c1`, the EC50 in the experiment on Hepatitis B virus [1] is 34 nM.
In general, IC50 refers to the concentration that inhibits the measured activity by half. Take `CCN(CCN(C)C)C(=O)CNCc1cc(C(=O)O)ccn1`: the midpoint of inhibition in experiment [3], the IC50, lay at 380 nM.
Consider `CCc1cc2c(cc1-c1cccc(S(=O)(=O)F)c1)C(C)(C)c1[nH]c3cc(C#N)ccc3c1C2=O`, for which the IC50 on SRSF protein kinase 1 was 9400 nM.
Consider `O=C(Nc1ccc2c(=O)c3cccc(F)c3oc2c1)c1ccccc1`, for which inhibition in experiment [4] was half-maximal at 1890 nM (IC50).
Take `Cn1cnc(COC(=O)N[C@H]2CCc3c(C(=O)Nc4ccc(F)c(Cl)c4)ccc(F)c32)n1`: the EC50 with Hepatitis B virus [5] was 630 nM.
In the case of `Cc1cc(N)c(S(N)(=O)=O)cc1C(=O)Nc1cc(F)c(F)c(F)c1`, the concentration giving a half-maximal response (EC50) with Hepatitis B virus [6] was 60 nM.
On to `CCOC(=O)C1=C(CN2CCN(C(C(=O)O)c3cccc([N+](=O)[O-])c3)CC2)NC(c2nccs2)=NC1c1ccc(F)cc1Br` (stereo not drawn), for which the EC50 with Hepatitis B virus [2] was 24 nM.
Regarding `CCOC(=O)C1=C(CN2CCN(C(C(=O)O)c3ccoc3)CC2)NC(c2nccs2)=NC1c1ccc(F)cc1Br` (stereo not drawn), the EC50 in the experiment with Hepatitis B virus [2] is above 10000 nM.
Consider `CNC(=O)C1(NC(=O)C(=O)c2c(C)c(C(=O)Nc3ccc(F)c(F)c3)n3c2CCC3)CC(F)(F)C1`, for which, in the experiment with Hepatitis B virus [5], the concentration for a half-maximal effect (EC50) was 80 nM.
For the compound `COC(=O)C1=C(C)NC(c2ncc(F)cc2F)=N[C@H]1c1ccc(F)cc1Cl`, the half-maximal effective concentration (EC50) in the experiment with Hepatitis B virus [7] turned out to be 23 nM.
`Cc1cn(-c2ccc3c(c2)CN(c2ncc(Cc4ccc(-n5cccn5)cc4)s2)CC3)c(C)n1`: the IC50 in experiment [8] is below 620 nM.
For `N#Cc1ccc(Cn2nc(-c3ccc(C(F)(F)F)nc3F)c3ccccc3c2=O)cc1`, in the experiment with HepG2 2.2.15, the IC50 amounted to 200 nM.
Consider `Cc1ccc2[nH]c(CCNc3nccc(-c4ccccn4)n3)nc2c1C`, for which, in the experiment on Hepatitis B virus [9], the EC50 is above 10000 nM.
Regarding `CCn1ccnc1-c1c(-c2ccccc2)ncn1CCCc1cccnc1`, the EC50 with Hepatitis B virus [9] was determined as 10000 nM.
`CCCCCCCc1cc(OC(=O)c2c(CCCCCCC)cc(O)cc2O[C@H]2O[C@@H](CO)[C@@H](O)[C@@H](O)[C@@H]2O)cc(O)c1C(=O)O` gave an IC50 in experiment [10] of 2200 nM.
As to `CCCCCCCCCc1cc(OC(=O)c2c(CCCCCCCCC)cc(O)cc2O[C@@H]2O[C@H](CO)[C@@H](O)[C@H](O)[C@H]2O)cc(O)c1C(=O)O`, in experiment [10], half-maximal inhibition (IC50) required 1100 nM.
Take `CC(C)OC(=O)[C@H](C)NP(=O)(OC[C@@]1(F)CO[C@@H](n2cnc3c(N)ncnc32)[C@@H]1CO)Oc1ccccc1` (stereo partly drawn): the concentration giving a half-maximal response (EC50) in the experiment on Hepatitis B virus [11] is 80 nM.
In the case of `Nc1ncnc2c1ncn2[C@@H]1OC[C@](F)(CO)[C@H]1CO`, in the experiment on Hepatitis B virus [11], the concentration for a half-maximal effect (EC50) is above 10000 nM.
In the experiment with Hepatitis B virus [12], `CCOCCOC(=O)C1=C(C)NC(c2ncc(F)cc2F)=NC1c1ccc(F)cc1C` (stereo not drawn) came in with a half-maximal effective concentration (EC50) of 6240 nM.
`O=C(Nc1ccc(F)c(C(F)F)c1)C1c2ccccc2NCC1CN1CCC(F)(F)CC1` (stereo not drawn): in the experiment with Hepatitis B virus [6], the EC50 stood at 100 nM.
As to `Nc1ncnc2c1ncn2[C@@H]1OC[C@](F)(COP(=O)(O)OP(=O)(O)OP(=O)(O)O)[C@H]1CO`, in experiment [13], it took 320 nM to reach half-maximal inhibition (IC50).
